Measurements: patent US11389453B2, “Compositions and methods for treating chemosensory dysfunction” (Cyrano Therapeutics, Inc., priority 2005, dated 2022)
“Also recorded” adds a separate entry of the source. Marks after values point to notes of the source that are not given here.

Columns and labels:
Type in all cases: in vivo, human
TNFR 2 = TNFR 2 in nasal mucus of patients with hyposmia treated with theophylline; settings: for TNFR2: nasal mucus, patients with hyposmia (18)
Method: (§1) Table 35 illustrates detection and measurement of TNFα, and soluble TNF receptors 1 and 2, moieties in the nasal mucus. TNFα, and soluble TNF receptors 1 and 2 increase in systems undergoing excessive apoptosis.
With a dose dependent increase of theophylline treatment levels of TNFR 2 in nasal mucus decreased consistent with a dose dependent increase in smell function. Levels of TNFR 2 in patients with Type I and Type II hyposmia decreased almost 50% on 600 mg theophylline consistent with their greatest return of smell function. At this highest level of theophylline levels of TNFR 2 were decreased in relationship to the decrease in smell function-TNFR 2, Type I>Type II>Type III; smell loss, Type I>Type II>Type III.

TNFR 1 = TNFR 1 in nasal mucus of patients with hyposmia treated with theophylline; settings: for TNFR1: nasal mucus, patients with hyposmia (19)
Description: as §1
With increased smell loss pre treatment TNFR 1 levels were increased in nasal mucus in patients with Type I hyposmia (whose smell loss was increased over that of patients with Type II hyposmia). […] The greater was the smell loss, the higher was the level of TNFR 1.

TNFα = TNFα in nasal mucus of patients with hyposmia treated with theophylline; settings: for TNF∝: nasal mucus, patients with hyposmia (24)
Description: as §1
(§2) These studies were extended to reveal levels of TNFα in nasal mucus of patients with graded loss of smell following treatment with theophylline (Table 36). Smell loss was graded such that loss was greatest in Type I hyposmia, less in Type II and still less in Type III (I>II>III). […] Following treatment which was effective in restoring smell function toward normal, levels of TNFα decreased in each patient group consistent with each increased dose of theophylline which generated a dose dependent increase in smell function—as theophylline dose increased, smell function increased and TNFα levels decreased. In Type I hyposmia TNFα decreased 40% after treatment with 400 mg theophylline and 57% after treatment 600 mg. In Type II hyposmia TNFα decreased 11% after treatment with 600 mg theophylline.

TRAIL = TRAIL in nasal mucus of patients with hyposmia before and after treatment with theophylline; settings: for TRAIL: nasal mucus, patients with hyposmia (5)
patients with hyposmia = assay: Smell function (olfactory acuity) in patients with hyposmia treated with theophylline
Description: as §2

Nitric Oxide (NO) = assay: NO in nasal mucus of patients with hyposmia before and after theophylline treatment; settings: for NO: nasal mucus, patients (12)
Description: Table 33 in the examples illustrates NO in nasal mucus in patients treated with theophylline in various doses before and after drug treatment. NO levels in nasal mucus changed following the treatment of patients with smell loss. […] Its continual measurement during treatment of the disorders helps in monitoring efficacy of therapy. The detection of NO in nasal mucus provides a non invasive method of diagnosing various diseases related to human physiology and pathology. The methods of the present invention include treatment of diseases by modulating the concentrations of NO by use of drugs or agents. The method of treatment is preferably by nasal administration.
Table 33 illustrates NO levels in nasal mucus in patients treated with Theophylline in various doses before and after drug treatment. NO levels in nasal mucus changed following the treatment of patients with smell loss. […] Its continual measurement during treatment of these disorders helps in monitoring efficacy of therapy. The detection of NO in nasal mucus provides a non invasive method of diagnosing various diseases related to human physiology and pathology.

[1] = hyposmia Type I (7), theophylline 200 mg orally daily
[2] = hyposmia Type I (7), theophylline 600 mg orally daily
[3] = hyposmia Type II (10), theophylline 200 mg orally daily
[4] = hyposmia Type II (10), theophylline 400 mg orally daily
[5] = hyposmia Type II (10), theophylline 600 mg orally daily
[6] = hyposmia Type III (2), theophylline 600 mg orally daily
[7] = patients with hyposmia, stepwise increase in theophylline dose

Cn1c(=O)c2[nH]cnc2n(C)c1=O [theophylline]
TNFR 2 decrease in nasal mucus (TNFR 2; Type I and Type II hyposmia, 600 mg theophylline): ~50%
TNFR2 in nasal mucus (TNFR 2; [1]): 3,100 ± 1,184
TNFR2 in nasal mucus (TNFR 2; [2]): 1,491 ± 1,102
TNFR2 in nasal mucus (TNFR 2; [3]): 1,378 ± 480^
TNFR2 in nasal mucus (TNFR 2; [4]): 1,014 ± 272
TNFR2 in nasal mucus (TNFR 2; [5]): 553 ± 158
TNFR2 in nasal mucus (TNFR 2; [6]): 436 ± 443
TNFR2 (TNFR 2; Theophylline treatment 200): 1,952 ± 339
TNFR2 (TNFR 2; Theophylline treatment 400): 949 ± 180^c
TNFR2 (TNFR 2; Theophylline treatment 600): 916 ± 344
TNFR 2 in nasal mucus, change after treatment (TNFR 2; [7]): significant dose-response decrease; also recorded: decreased
TNFR 1 in nasal mucus (TNFR 1; [1]): 6,521 ± 1,304^c
TNFR 1 in nasal mucus (TNFR 1; hyposmia Type I (7), theophylline 400 mg orally daily): 1,498
TNFR 1 in nasal mucus (TNFR 1; [2]): 1,832 ± 704^a
TNFR 1 in nasal mucus (TNFR 1; [3]): 1,462 ± 371 ^
TNFR 1 in nasal mucus (TNFR 1; [4]): 1,087 ± 335
TNFR 1 in nasal mucus (TNFR 1; [5]): 862 ± 335
TNFR 1 in nasal mucus (TNFR 1; [6]): 585 ± 335
TNFR1 (TNFR 1; Theophylline treatment 200): 3,148 ± 663
TNFR1 (TNFR 1; Theophylline treatment 400): 1,146 ± 220^b
TNFR1 (TNFR 1; Theophylline treatment 600): 1,220 ± 286^ab
TNFR 1 in nasal mucus, change after treatment (TNFR 1; [7]): significant dose-response decrease; also recorded: TNFR 1 levels decreased in Type I
TNFα decrease in nasal mucus (TNFα; Type I hyposmia, 400 mg theophylline): 40%
TNFα decrease in nasal mucus (TNFα; Type I hyposmia, 600 mg theophylline): 57%
TNFα decrease in nasal mucus (TNFα; Type II hyposmia, 600 mg theophylline): 11%
TNF∝ in nasal mucus (TNFα; hyposmia Type I (8), theophylline 400 mg orally daily): 15.6
TNF∝ in nasal mucus (TNFα; hyposmia Type I (8), theophylline 600 mg orally daily): 11.2 ± 4.4^
TNF∝ in nasal mucus (TNFα; hyposmia Type II (13), theophylline 200 mg orally daily): 14.9 ± 2.5
TNF∝ in nasal mucus (TNFα; hyposmia Type II (13), theophylline 400 mg orally daily): 11.5 ± 3.2
TNF∝ in nasal mucus (TNFα; hyposmia Type II (13), theophylline 600 mg orally daily): 4.3 ± 0.8^a
TNF∝ in nasal mucus (TNFα; hyposmia Type III (3), theophylline 600 mg orally daily): 1.2 ± 0.7^bc
TNF∝ (TNFα; Theophylline treatment 200): 20.0 ± 2.8 µg/mL
TNF∝ (TNFα; Theophylline treatment 400): 12.1 ± 2.1 µg/mL
TNF∝ (TNFα; Theophylline treatment 600): 7.4 ± 1.8 µg/mL
TNFα in nasal mucus, change after treatment (TNFα; [7]): significant dose-response decrease
TRAIL (TRAIL; theophylline 200 mg): 855 µg/mL
TRAIL (TRAIL; theophylline 400 mg): 791 µg/mL
TRAIL (TRAIL; theophylline 600 mg): 247 µg/mL
TRAIL in nasal mucus, change after treatment (TRAIL; patients with hyposmia, before vs after theophylline at various doses): dose-dependent decrease
smell function (patients with hyposmia; 600 mg theophylline): restored smell function to or toward normal
smell function (patients with hyposmia; theophylline at various (graded) doses): returned smell function to normal in a dose-dependent manner; also recorded: graded increases in smell function; also recorded: stepwise improvement in olfactory acuity
NO (Nitric Oxide (NO); Theophylline 200 mg): 0.25 ± 0.01 µg/mL
NO (Nitric Oxide (NO); Theophylline 400 mg): 0.40 ± 0.06 µg/mL
NO (Nitric Oxide (NO); Theophylline 600 mg): 0.59 ± 0.16 µg/mL
NO in nasal mucus, change after treatment (Nitric Oxide (NO); patients with hyposmia, theophylline in graded doses): increases in nasal mucus NO
